According to ChEMBL document CHEMBL5029170, “Discovery of novel triazole compounds as selective IL-1β releasement inhibitors” (Bioorg Med Chem Lett, 2021):
Activity calls are given as the source filed them. The rule behind the calls is not given here.

How the values were obtained:
[1] = Selectivity index, ratio of antiinflammatory activity in mouse BMDM cells assessed as inhibition of TNF-alpha production to antiinflammatory activity in mouse BMDM cells assessed as inhibition of IL1-beta production; assay type: functional
[2] = Antiinflammatory activity in mouse BMDM cells assessed as inhibition of IL1-beta production; assay type: functional, cell-based
[3] = Antiinflammatory activity in mouse BMDM cells assessed as inhibition of TNF-alpha production; assay type: functional, cell-based
[4] = Antiinflammatory activity in mouse BMDM cells assessed as inhibition of IL1-beta production relative to control; assay type: functional
[5] = Selectivity index, ratio of IC50 for antiinflammatory activity in mouse BMDM cells assessed as inhibition of TNF-alpha production to IC50 for antiinflammatory activity in mouse BMDM cells assessed as inhibition of IL1-beta production; assay type: functional
[6] = Antiinflammatory activity in mouse BMDM cells assessed as inhibition of TNF-alpha production relative to control; assay type: functional
[7] = target: NACHT, LRR and PYD domains-containing protein 3 (Mus musculus) (UniProt Q8R4B8); assay: Inhibition of NLRP3 inflammasome activation in LPS-primed immortalized mouse BMDM cells assessed as inhibition of LPS/ATP induced IL-1beta release by ELISA; assay type: cell-based
[8] = target: NACHT, LRR and PYD domains-containing protein 3 (Mus musculus) (UniProt Q8R4B8); assay: Inhibition of NLRP3 inflammasome activation in LPS-primed immortalized mouse BMDM cells assessed as reduction in ATP-induced cleaved caspase-1 expression in supernatant at 5 to 20 uM by western blot analysis; assay type: cell-based; settings: dose 5-20 µM
[9] = target: NACHT, LRR and PYD domains-containing protein 3 (Mus musculus) (UniProt Q8R4B8); assay: Inhibition of NLRP3 inflammasome activation in LPS-primed immortalized mouse BMDM cells assessed as reduction in ATP-induced mature IL-1beta expression in supernatant at 5 to 20 uM by western blot analysis; assay type: cell-based; settings: dose 5-20 µM
[10] = target: NACHT, LRR and PYD domains-containing protein 3 (Mus musculus) (UniProt Q8R4B8); assay: Inhibition of NLRP3 inflammasome activation in LPS-primed mouse BMDM cells assessed as inhibition of LPS/ATP induced IL-1beta release by ELISA; assay type: cell-based
[11] = target: NACHT, LRR and PYD domains-containing protein 3 (Mus musculus) (UniProt Q8R4B8); assay: Inhibition of NLRP3 inflammasome activation in LPS-primed immortalized mouse BMDM cells assessed as effect on ATP-induced pro-IL-1beta level in cell lysate at 5 to 20 uM by western blot analysis; assay type: subcellular; settings: dose 5-20 µM
[12] = target: NACHT, LRR and PYD domains-containing protein 3 (Mus musculus) (UniProt Q8R4B8); assay: Inhibition of NLRP3 inflammasome activation in LPS-primed immortalized mouse BMDM cells assessed as effect on ATP-induced NLRP3 level in cell lysate at 5 to 20 uM by western blot analysis; assay type: subcellular; settings: dose 5-20 µM

Sequence of NACHT, LRR and PYD domains-containing protein 3 (Mus musculus) (Q8R4B8 whole entry, the tested form may be a part): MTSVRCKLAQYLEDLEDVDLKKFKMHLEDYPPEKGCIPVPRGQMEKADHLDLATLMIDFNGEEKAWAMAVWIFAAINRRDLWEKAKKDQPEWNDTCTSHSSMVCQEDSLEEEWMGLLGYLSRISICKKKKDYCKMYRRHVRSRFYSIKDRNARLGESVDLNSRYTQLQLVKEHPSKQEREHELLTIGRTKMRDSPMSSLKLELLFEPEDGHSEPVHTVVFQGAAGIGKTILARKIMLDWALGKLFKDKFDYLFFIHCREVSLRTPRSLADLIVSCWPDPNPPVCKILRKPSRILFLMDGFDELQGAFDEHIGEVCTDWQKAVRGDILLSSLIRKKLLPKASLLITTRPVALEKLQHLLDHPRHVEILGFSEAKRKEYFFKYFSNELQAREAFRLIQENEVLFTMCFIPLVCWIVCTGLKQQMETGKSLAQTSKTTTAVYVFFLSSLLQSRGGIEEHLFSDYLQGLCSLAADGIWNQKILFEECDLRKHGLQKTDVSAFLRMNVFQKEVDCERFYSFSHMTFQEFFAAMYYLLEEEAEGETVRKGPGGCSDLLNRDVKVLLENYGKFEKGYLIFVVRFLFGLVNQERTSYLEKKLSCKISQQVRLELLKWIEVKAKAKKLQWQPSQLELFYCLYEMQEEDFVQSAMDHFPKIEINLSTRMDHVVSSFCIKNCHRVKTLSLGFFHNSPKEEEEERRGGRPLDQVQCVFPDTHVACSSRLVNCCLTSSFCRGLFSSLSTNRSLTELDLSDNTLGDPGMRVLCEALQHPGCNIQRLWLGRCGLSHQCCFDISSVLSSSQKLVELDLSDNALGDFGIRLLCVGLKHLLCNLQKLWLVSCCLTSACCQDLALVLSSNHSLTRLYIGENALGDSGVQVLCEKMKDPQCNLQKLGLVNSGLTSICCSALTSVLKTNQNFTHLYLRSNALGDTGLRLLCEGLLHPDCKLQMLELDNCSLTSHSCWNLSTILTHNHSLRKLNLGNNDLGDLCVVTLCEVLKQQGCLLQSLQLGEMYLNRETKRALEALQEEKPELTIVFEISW

SMILES | Selectivity Index [1] | inhibition (INH) [4] [%] | inhibition (INH) [6] [%] | other results
CCC(CC)C(=O)Nc1c(C(N)=O)nnn1Cc1cc(Cl)c(C(=O)c2ccc(Cl)cc2)c(Cl)c1 | 13.43 | 77.01 | 5.73 | IC50 [2]: 8.08 µM; IC50 [3]: > 100 µM; Ratio IC50 [5]: >12.37
Nc1c(C(=O)N2CCCC2)nnn1Cc1cc(Cl)c(C(=O)c2ccc(Cl)cc2)c(Cl)c1 | 0.65 | 33.52 | 51.44 | 
CC(C)C(=O)Nc1c(C(N)=O)nnn1Cc1cc(Cl)c(C(=O)c2ccc(Cl)cc2)c(Cl)c1 | 3.88 | 30.69 | 7.91 | 
Nc1c(C(=O)NCCOCCOCCO)nnn1Cc1cc(Cl)c(C(=O)c2ccc(Cl)cc2)c(Cl)c1 | 5.3 | 42.65 | 8.04 | 
NC(=O)c1nnn(Cc2cc(Cl)c(C(=O)c3ccc(Cl)cc3)c(Cl)c2)c1NC(=O)CCCBr | 19.51 | 53.09 | -2.72 | 
Nc1c(C(=O)N2CCCCC2)nnn1Cc1cc(Cl)c(C(=O)c2ccc(Cl)cc2)c(Cl)c1 | 0.51 | 27.12 | 52.43 | 
CNc1c(C(N)=O)nnn1Cc1cc(Cl)c(C(=O)c2ccc(Cl)cc2)c(Cl)c1 | 3.71 | 57.66 | 15.53 | inhibition [7]: Dose-Dependent Effect; IC50 [2]: 5.49 µM; IC50 [3]: > 100 µM; inhibition [8]: Active; inhibition [9]: Active; inhibition [10]: Dose-Dependent Effect; Ratio IC50 [5]: >18.22; inhibition [11]: inactive; inhibition [12]: inactive
N#Cc1nnn(Cc2cc(Cl)c(C(=O)c3ccc(Cl)cc3)c(Cl)c2)c1N | 0.78 | 64.01 | 82.32 | 
CC(C)(C)C(=O)N(C(=O)C(C)(C)C)c1c(C(N)=O)nnn1Cc1cc(Cl)c(C(=O)c2ccc(Cl)cc2)c(Cl)c1 |  | -8.41 | 17.92 | 
NC(=O)c1nnn(Cc2cc(Cl)c(C(=O)c3ccc(Cl)cc3)c(Cl)c2)c1NC(=O)c1ccco1 | 2.65 | 56.91 | 21.44 | 
CNC(=O)c1nnn(Cc2cc(Cl)c(C(=O)c3ccc(Cl)cc3)c(Cl)c2)c1N | 1.26 | 58.34 | 46.35 | 
CN1CCN(C(=O)c2nnn(Cc3cc(Cl)c(C(=O)c4ccc(Cl)cc4)c(Cl)c3)c2N)CC1 | 0.38 | 36.62 | 97 | 
Nc1c(C(=O)NCCO)nnn1Cc1cc(Cl)c(C(=O)c2ccc(Cl)cc2)c(Cl)c1 | 4.85 | 72.28 | 15.01 | 
Nc1c(C(=O)NCc2ccccc2)nnn1Cc1cc(Cl)c(C(=O)c2ccc(Cl)cc2)c(Cl)c1 | 2.8 | 21.22 | 7.59 | 
NC(=O)c1nnn(Cc2ccc3ccccc3c2)c1N |  | -26.65 | 2.5 | 
NC(=O)c1nnn(Cc2ccc(C(=O)c3ccccc3)cc2)c1N |  | 1.36 | -16.37 | 
CC(C)C(=O)N(C(=O)C(C)C)c1c(C(N)=O)nnn1Cc1cc(Cl)c(C(=O)c2ccc(Cl)cc2)c(Cl)c1 |  | -22.3 | 20.24 | 
NC(=O)c1nnn(Cc2cc(Cl)c(C(=O)c3ccc(Cl)cc3)c(Cl)c2)c1NC(=O)c1ccccc1 | 0.53 | 46.29 | 86.58 | 
NC(=O)c1nnn(Cc2cc(Cl)c(C(=O)c3ccc(Cl)cc3)c(Cl)c2)c1NC(=O)C1CC1 | 0.78 | 57.13 | 73.51 | 

SMILES | Selectivity Index [1] | inhibition (INH) [4] [%] | inhibition (INH) [6] [%] | other results
CCC(=O)N(C(=O)CC)c1c(C(N)=O)nnn1Cc1cc(Cl)c(C(=O)c2ccc(Cl)cc2)c(Cl)c1 |  | -23.37 | 11.95 | 
NC(=O)c1nnn(Cc2ccccc2)c1N |  | -6.29 | -12.61 | 
NC(=O)c1nnn(Cc2cc(Cl)c(C(=O)c3ccc(Cl)cc3)c(Cl)c2)c1NC(=O)CCBr | 1.07 | 87.06 | 81.52 | IC50 [2]: 4.97 µM; IC50 [3]: 9.77 µM; Ratio IC50 [5]: 1.96
CC(=O)c1nnn(Cc2cc(Cl)c(C(=O)c3ccc(Cl)cc3)c(Cl)c2)c1N | 0.8 | 39.49 | 49.4 | 
CCC(=O)Nc1c(C(N)=O)nnn1Cc1cc(Cl)c(C(=O)c2ccc(Cl)cc2)c(Cl)c1 | 3.33 | 47.39 | 14.25 | 
NC(=O)c1nnn(Cc2cc(Cl)c(C(=O)c3ccc(Cl)cc3)c(Cl)c2)c1N(C(=O)C1CC1)C(=O)C1CC1 |  | -36.41 | 48.7 | 
Nc1c(C(=O)NCCOCCO)nnn1Cc1cc(Cl)c(C(=O)c2ccc(Cl)cc2)c(Cl)c1 | 1.12 | 62 | 5.3 | 
CN(C)c1c(C(N)=O)nnn1Cc1cc(Cl)c(C(=O)c2ccc(Cl)cc2)c(Cl)c1 | 0.87 | 39.86 | 45.89 | 
CCNc1c(C(N)=O)nnn1Cc1cc(Cl)c(C(=O)c2ccc(Cl)cc2)c(Cl)c1 | 1 | 57.89 | 57.8 | 
CC(C)(C)C(=O)Nc1c(C(N)=O)nnn1Cc1cc(Cl)c(C(=O)c2ccc(Cl)cc2)c(Cl)c1 | 0.74 | 68.75 | 92.89 | 
NC(=O)c1nnn(Cc2ccc(-c3ccccc3)cc2)c1N |  | -18.17 | 0.39 | 
CCCC(=O)Nc1c(C(N)=O)nnn1Cc1cc(Cl)c(C(=O)c2ccc(Cl)cc2)c(Cl)c1 | 1.56 | 74.89 | 47.9 | IC50 [2]: 11.9 µM; IC50 [3]: 26.8 µM; Ratio IC50 [5]: 2.25
NC(=O)c1nnn(Cc2cc(Cl)c(C(=O)c3ccc(Cl)cc3)c(Cl)c2)c1N [CARBOXYAMIDOTRIAZOLE] | 0.82 | 71.94 | 87.54 | 
COC(=O)c1nnn(Cc2cc(Cl)c(C(=O)c3ccc(Cl)cc3)c(Cl)c2)c1N | 2.72 | 18.59 | -6.83 | 
CCNC(=O)c1nnn(Cc2cc(Cl)c(C(=O)c3ccc(Cl)cc3)c(Cl)c2)c1N | 0.71 | 53.9 | 75.89 | 
CN(C)C(=O)c1nnn(Cc2cc(Cl)c(C(=O)c3ccc(Cl)cc3)c(Cl)c2)c1N | 0.75 | 43.42 | 57.9 | 
NC(=O)c1cn(Cc2cc(Cl)c(C(=O)c3ccc(Cl)cc3)c(Cl)c2)nn1 | 1.68 | 50.67 | 30.18 | 
CCC(CC)C(=O)N(C(=O)C(CC)CC)c1c(C(N)=O)nnn1Cc1cc(Cl)c(C(=O)c2ccc(Cl)cc2)c(Cl)c1 |  | -22.74 | 12.68 | 
